One may read the viability, T/C as the ratio of treated to control. By IC50 is commonly meant the concentration that inhibits the measured activity by half.

Consider nine compounds from PubChem BioAssay AID1963840 (Molecular Pharmacology Branch, DTP, NCI, 2024).

SMILES strings stand for the structures. Values joined by “and” are separate entries in the source; they are usually repeats but may differ in a detail not shown here. Identical values can stand only once.

This experiment relates to 695427-040-R-J1-PDC complex spheroid viability. The experiment is described as follows: Anticancer human tumor 695427-040-R-J1-PDC patient-derived colon adenocarcinoma cell line growth inhibition [POLQ]. Particulars: for viability, T/C: stronger effect = lower value. As to the method: Multicellular complex tumor spheroid response to Polymerase (POL) inhibitors (novobiocin, ART-558, RP6685) in combination with a variety of drugs and investigational agents in selected tumor cell lines
The POL inhibitors (novobiocin, ART-558, and RP6685) were evaluated both individually and in combination with standard of care and investigational anticancer small molecules within a complex spheroid model of solid tumors. . Complex spheroids include a stromal component modeled by human endothelial cells (HUVEC) and fibroblasts modeled by human mesenchymal stem cells (MSCs). The concentration ranges selected for each drug and investigational agent were based upon clinically achievable concentrations if the clinical Cmax of the agent was known.
Compounds. The drugs and investigational agents: novobiocin (NSC847541), ART-558 (NSC835418), RP-6685 (NSC848927), peposertib (NSC802822), ceralasertib (NSC780249), elimusertib (NSC800525), camonsertib (NSC841442), AZD-1390 (NSC803789), olaparib (NSC753686), talazoparib (NSC767125), rucaparib (NSC756644), sotorasib (NSC818433), MRTX-1133 (NSC836407), SN-38 (NSC673596), topotecan (NSC609699), epotoside (NSC141540), doxorubicin (NSC123127), gemcitabine (NSC613327), 5-fluorouracil (NSC19893), paclitaxel (NSC125973), vemurafenib (NSC761431), MSA-2 (NSC828583), SN-011 (NSC837082), adavosertib (NSC754352), prexasertib (NSC758257), carboplatin (NSC241240) and oxaliplatin (NSC266046), were obtained from the National Cancer Institute (NCI) Developmental Therapeutics Program Chemical Repository (21). The FDA-approved anticancer drug set is available from the Developmental Therapeutics Program at https://dtp.cancer.gov/organization/dscb/obtaining/. […] The stock solutions were prepared in dimethyl sulfoxide (DMSO, Sigma-Aldrich, St. Louis, MO, cat. D2650), except for the platinum compounds which were prepared in saline (Quality Biological, Gaithersburg, MD, cat. 114-055-101), at 800-fold the tested concentration and stored at -70 degrees C prior to their use. All drugs and investigational agents were tested over a range starting from a high concentration at or near the clinical Cmax and decreasing in half-log increments. If the clinical Cmax for an agent had not been determined, the highest concentration tested was 10 microM, except for SN-38, which was tested at a high concentration of 1 microM.
Cell Culture. All cells were maintained in an incubator at 37 degrees C and 5% CO2 with 95% humidity. The PDC lines were cultured according to standard operating procedures established by the NCI PDMR (https://pdmr.cancer.gov). Table 3 of the manuscript, lists the cell lines along with the number of the three cell types plated to form the mct-spheroids and media for tumor cell growth. After thawing, all PDC lines, except 997537-175-T-J1-PDC and 415267-285-R-J2-PDC, were cultured in Matrigel-coated flasks prepared with a working solution of 1X Ham's F-12 nutrient mix, without supplementation (Thermo Fisher Scientific, cat. 11765054), 100 U/mL penicillin-streptomycin (Thermo Fisher Scientific, cat. 15140122), and 2.5% Matrigel (Corning Inc., Corning, NY, cat. 354248) for the first three passages. The two PDC lines 997537-175-T-J1-PDC and 415267-285-R-J2-PDC were cultured on uncoated flasks. The 857933-349-R-J2-PDC line was cultured in 6C/Colon 1B media containing advanced DMEM/F-12 (Thermo Fisher Scientific, cat. 12634028), 10 mM HEPES (Thermo Fisher Scientific, cat. 15630080), 1X GlutaMAX supplement (Thermo Fisher Scientific, cat. 35050061), 0.1 mg/mL primocin (InvivoGen, San Diego, CA, cat. ant-pm-2), 10% defined fetal bovine serum, heat inactivated (HyClone Laboratories Inc., Logan, UT, cat. SH30070.03HI), 50% L-WRN conditioned media (ATCC, cat. CRL-3276), 1.25 mM N-Acetyl-L-cysteine (Sigma-Aldrich, cat. A9165), 10 mM nicotinamide (Sigma-Aldrich, cat. N0636), 1X B-27 supplement (Thermo Fisher Scientific, cat. 17504044), 1X N-2 supplement (Thermo Fisher Scientific, cat. […]
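Also: spheroids exposed to compounds for seven days.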

Regarding `C#Cc1c(F)ccc2cc(O)cc(-c3ncc4c(N5CC6CCC(C5)N6)nc(OCC56CCCN5CC(F)C6)nc4c3F)c12` (stereo not drawn), the viability, T/C is 102% (2×) and 106% (compound 0.0316 µM); 93.8% and 98.8% and 105% (compound 0.1 µM); 95% and 98.2% and 97.1% (compound 0.316 µM); 98.6% and 102% and 107% (compound 1 µM); 90.7% and 98.5% and 95% (compound 3.16 µM); 76.6% and 91% and 87.1% (compound 10 µM). In addition, the IC50 (curve of compound) is > 10 µM.
As to `C=CC(=O)N1CCN(c2nc(=O)n(-c3c(C)ccnc3C(C)C)c3nc(-c4c(O)cccc4F)c(F)cc23)C(C)C1` (stereo not drawn), the viability, T/C by setting is: (compound 0.0316 µM) 105% and 108% and 107%; (compound 0.1 µM) 88.5% and 91.5% and 95.3%; (compound 0.316 µM) 103% and 107% and 106%; (compound 1 µM) 117% and 106% and 121%; (compound 3.16 µM) 105% and 91.4% and 112%; (compound 10 µM) 113% (2×) and 96.9%. For the same compound, the IC50 (curve of compound) was > 10 µM.
Consider `CC(C)n1c(=O)n(C)c2cnc3cc(F)c(-c4ccc(OCCCN5CCCCC5)nc4)cc3c21`, for which the viability, T/C runs as follows: (compound 0.0316 µM) 96.7% and 98.1% and 112%; (compound 0.1 µM) 104% and 109% and 101%; (compound 0.316 µM) 109% and 104% and 106%; (compound 1 µM) 109% (2×) and 124%; (compound 3.16 µM) 104% and 108% and 101%; (compound 10 µM) 73.4% and 83.2% and 79%. Moreover, the IC50 (curve of compound) was > 10 µM.
On to `CC1COCCN1c1cc(C2(O)CC3CCC(C2)O3)c2cnn(-c3ccn[nH]3)c2n1` (stereo not drawn), for which the viability, T/C was 100% and 101% and 103% (compound 0.0316 µM); 85.7% and 87.4% and 94.1% (compound 0.1 µM); 79.1% and 75.7% and 85.8% (compound 0.316 µM); 64.4% and 68.9% and 78.5% (compound 1 µM); 55.6% and 52% and 69% (compound 3.16 µM); 46.3% and 44.4% and 55.9% (compound 10 µM). Further, where the note is “curve of compound”, the IC50 was 6.3 µM and 5.11 µM and > 10 µM.
For the compound `CCc1cc2c(N3CCc4c(cc(Cn5ccnc5)cc4-c4cn(C)nc4C(F)(F)F)C3=O)cc(C)nc2c(OC)n1`, the viability, T/C is, setting by setting: (compound 0.0316 µM) 107% and 108% and 105%; (compound 0.1 µM) 105% and 101% and 108%; (compound 0.316 µM) 110% and 98.6% and 100%; (compound 1 µM) 108% and 101% and 96.8%; (compound 3.16 µM) 104% and 112% and 110%; (compound 10 µM) 96.4% and 97.9% and 106%. The IC50 (curve of compound) was > 10 µM.
For `CCc1cc2c(N3CCc4c(cc(Cn5ccnc5)cc4-c4cn(C)nc4C(F)(F)F)C3=O)ccnc2c(OC)n1`, the viability, T/C was 114% and 91.3% and 93.8% (compound 0.0316 µM); 97.6% and 96% and 98.8% (compound 0.1 µM); 110% and 88.2% and 101% (compound 0.316 µM); 106% and 95.6% and 101% (compound 1 µM); 112% (2×) and 103% (compound 3.16 µM); 103% and 96% and 100% (compound 10 µM). Under “curve of compound”, the IC50 was > 10 µM.
On to `COc1cc2cc(C(=O)CCC(=O)O)sc2cc1OC`, for which the viability, T/C (compound 0.0316 µM) was 109% and 100% and 101%; the viability, T/C (compound 0.1 µM) is 97.3% and 102% and 99.5%; the viability, T/C (compound 0.316 µM) is 97.4% and 105% and 103%; the viability, T/C (compound 1 µM) is 104% and 105% and 107%; the viability, T/C (compound 3.16 µM) is 103% and 102% (2×); the viability, T/C (compound 10 µM) was 99.8% and 93.7% and 102%. In addition, the IC50 (curve of compound) was > 10 µM.
On to `O=C(Nc1ccc(O)c(NS(=O)(=O)c2ccc(F)cc2)c1)c1ccc(-c2ccccc2)cc1`, for which the viability, T/C (compound 0.0316 µM) was 112% and 106% (2×); the viability, T/C (compound 0.1 µM) is 94.9% and 102% and 99.2%; the viability, T/C (compound 0.316 µM) is 99.2% and 96.5% and 105%; the viability, T/C (compound 1 µM) was 106% and 111% and 105%; the viability, T/C (compound 3.16 µM) was 102% and 101% and 110%; the viability, T/C (compound 10 µM) is 94% and 98.5% and 90.2%. In addition, for the setting “curve of compound”, the concentration for half-maximal inhibition (IC50) is > 10 µM.
Regarding `CC(=O)O[C@H]1C(=O)[C@@]2(C)[C@H]([C@H](OC(=O)c3ccccc3)[C@]3(O)C[C@H](OC(=O)[C@H](O)[C@@H](NC(=O)c4ccccc4)c4ccccc4)C(C)=C1C3(C)C)[C@]1(OC(C)=O)CO[C@@H]1C[C@@H]2O` + COC1C(OC(N)=O)C(O)C(Oc2ccc3c(O)c(NC(=O)c4ccc(O)c(CC=C(C)C)c4)c(=O)oc3c2C)OC1(C)C, the IC50 (curve of first compound, second compound 0.0316 µM) was > 3 µM; the IC50 (curve of first compound, second compound 0.1 µM) was > 3 µM; the concentration for half-maximal inhibition (IC50) (curve of first compound, second compound 0.316 µM) was > 3 µM; the IC50 (curve of first compound, second compound 1 µM) was > 3 µM; the IC50 (curve of first compound, second compound 3.16 µM) was > 3 µM; the IC50 (curve of first compound, second compound 10 µM) is > 3 µM. The viability, T/C is 96.4% (second compound 0.0316 µM, first compound 0.00949 µM); 85.9% (second compound 0.0316 µM, first compound 0.03 µM); 84.7% (second compound 0.0316 µM, first compound 0.0949 µM); 89.5% (second compound 0.0316 µM, first compound 0.3 µM); 84.6% (second compound 0.0316 µM, first compound 0.949 µM); 72.2% (second compound 0.0316 µM, first compound 3 µM). Further, the viability, T/C is 96.4% (second compound 0.1 µM, first compound 0.00949 µM); 98.1% (second compound 0.1 µM, first compound 0.03 µM); 94.1% (second compound 0.1 µM, first compound 0.0949 µM); 85.9% (second compound 0.1 µM, first compound 0.3 µM); 89.8% (second compound 0.1 µM, first compound 0.949 µM); 72.4% (second compound 0.1 µM, first compound 3 µM). Moreover, the viability, T/C is, setting by setting: (second compound 0.316 µM, first compound 0.00949 µM) 103%; (second compound 0.316 µM, first compound 0.03 µM) 91.4%; (second compound 0.316 µM, first compound 0.0949 µM) 91%; (second compound 0.316 µM, first compound 0.3 µM) 92.4%; (second compound 0.316 µM, first compound 0.949 µM) 88.1%; (second compound 0.316 µM, first compound 3 µM) 77.9%. The viability, T/C is 99.2% (second compound 1 µM, first compound 0.00949 µM); 93.3% (second compound 1 µM, first compound 0.03 µM); 86.1% (second compound 1 µM, first compound 0.0949 µM); 90.5% (second compound 1 µM, first compound 0.3 µM); 88.5% (second compound 1 µM, first compound 0.949 µM); 78.6% (second compound 1 µM, first compound 3 µM). The viability, T/C by setting is: (second compound 3.16 µM, first compound 0.00949 µM) 92.5%; (second compound 3.16 µM, first compound 0.03 µM) 97.9%; (second compound 3.16 µM, first compound 0.0949 µM) 86.7%; (second compound 3.16 µM, first compound 0.3 µM) 87.3%; (second compound 3.16 µM, first compound 0.949 µM) 87.6%; (second compound 3.16 µM, first compound 3 µM) 76.3%. Also, the viability, T/C by setting is: (second compound 10 µM, first compound 0.00949 µM) 93.7%; (second compound 10 µM, first compound 0.03 µM) 97.2%; (second compound 10 µM, first compound 0.0949 µM) 91.7%; (second compound 10 µM, first compound 0.3 µM) 88.5%; (second compound 10 µM, first compound 0.949 µM) 87.6%; (second compound 10 µM, first compound 3 µM) 77%.
